Data: US20240317722A1, “HETEROARYL-3-PIPERIDINEDIONE COMPOUND AND USE THEREOF” (Medshine Discovery Inc., priority 2021, published 2024)

Tests used:
DMS114 = experiment: Anti-proliferative effect in DMS114 (CellTiter-Glo); assay type: cell-based; settings: DMS114, 3 days; for IC50: Homo sapiens, DMS-114, 72 h
Procedure: This assay studied the inhibitory effect of the compounds on cell proliferation by detecting the effect of the test compounds on the in vitro activity of tumor cells NCI-H1581, DMS114, NCI-H69 and NCI-H526.
The tumor cell lines were cultured in an incubator at 37° C., 5% CO2 or 0% CO2 according to the above culture conditions. The cells were periodically passaged, and cells in logarithmic growth phase were taken for plating. • 2. Cell plating • (1). Cells were stained with trypan blue and viable cells were counted.
• (3). 100 μL of cell suspension was added to each well of the culture plate, and culture medium without cells was added to the blank control well. • (4). The plate was incubated overnight in an incubator at 37° C., 5% CO2 or 0% CO2, and 100% relative humidity. • 3. Preparation of compound stock solution
Preparation of 1000× compound stock solution: Compound was dissolved in DMSO to 10 mM, then a portion was taken out and diluted to 1000 times the highest acting concentration. The diluted stock solution was dispensed for later use. • 4. Preparation of 5× compound working solution and treatment of cells with compounds. The working solutions were prepared freshly at each time for use. • (1). Preparation of 5× compound working solution: 119.4 μL of cell culture medium was added to a 96-well plate with a V-shaped bottom. 96 μL of DMSO-cell culture medium mix solution (with DMSO content of 0.5%) was added to subsequent gradient wells. 0.6 μL of the compound from the 1000× compound stock solution was added to the cell culture medium in the 96-well plate, and mixed to uniform with a pipette. A pipette was used to draw 24 μL of the compound-cell culture medium mixture into subsequent wells, and the mixture was mixed well by a pipette each time. • (2). Dosing: 25 μL of 5× compound working solution was added to the cell culture plate. 25 μL of DMSO-cell culture medium mix solution (with DMSO content of 0.5%) was added to the vehicle control and blank control. • (3). The 96-well cell plate was placed back into the incubator and cultured for 3 days. • 5. CellTiter-Glo luminescence cell viability detection
The following steps were performed according to the instruction of Promega CellTiter-Glo luminescence cell viability detection kit (Promega-G7573). • (1). The CellTiter-Glo buffer was thawed and allowed to stand to reach room temperature; • (2). CellTiter-Glo substrate was allowed to stand to reach room temperature; • (3). 10 mL of CellTiter-Glo buffer was added to CellTiter-Glo substrate in a bottle to dissolve the substrate to formulate CellTiter-Glo working solution; • (4). […] The culture plates were left at room temperature for 10 minutes to stabilize the luminescence signal; • (9). The luminous signal was detected on the 2104 En Vision plate reader. • 6. […]

[1] = tested on: human triple-negative breast cancer MDA-MB-231 cells; experiment: In vivo pharmacodynamic study, subcutaneous xenograft tumor Balb/c nude mouse model of MDA-MB-231 cells; design: species or system Balb/c nude mice; settings: for Tumor volume (Day 0): Day 0 (grouping); for in vivo efficacy on the xenograft tumor model (in words): MDA-MB-231 xenograft, oral
Procedure: Cell culture: Human triple-negative breast cancer MDA-MB-231 cells (ATCC-HTB-26) were cultured in monolayer in vitro. The culture conditions were RPMI-1640 medium with 10% fetal bovine serum in an incubator at 37° C. and 5% CO2. Conventional digestion with trypsin-EDTA was performed once every two days for passage. When the cell saturation was 80%-90% and the number met the requirement, the cells were collected, counted, and inoculated.
Assay animals: Balb/c nude mice, female, 6 weeks old upon arrival, purchased from Shanghai Bikai Experimental Animal Co., Ltd.
Cell inoculation: 0.2 mL (5×10^6 cells) of MDA-MB-231 cells (with matrigel, v/v 1:1) were subcutaneously inoculated into the right back of each mouse. The grouping for administration was started when the average tumor volume reached 110 mm^3. One dosing cycle was seven days, with administration once a day and an interval of 24 hours. The test compound was administered orally for a total of four cycles. The dosages of test compound WX005 were 10 mg/kg, 30 mg/kg and 100 mg/kg respectively, and the dosage of WX013 was 30 mg/kg respectively. Tumor diameter was measured twice a week with a vernier caliper. Tumor volume was calculated by the following formula: V=0.5a×b^2, where a and b are the long and short diameters of the tumor, respectively. The anti-tumor efficacy of compounds was evaluated by TGI (%) or relative tumor proliferation rate T/C (%). Relative tumor proliferation rate T/C (%)=TRTV/CRTV×100% (TRTV: average RTV of the treatment group; CRTV: average RTV of the negative control group). The relative tumor volume (RTV) was calculated based on the results of tumor measurement by the calculation formula: RTV=Vt/V0, where V0 is the tumor volume measured at grouping for administration (i.e., D0), and Vt is the tumor volume at a certain measurement, and TRTV and CRTV are taken on the same day.

Structure (SMILES) | Max. IR (DMS114) | IC50 (DMS114) | Tumor volume (Day 0) ([1]; 10 mg/kg orally once a day) | Relative tumor proliferation rate T/C (Day 27) ([1]; 10 mg/kg orally once a day) | TGI (Day 27) ([1]; 10 mg/kg orally once a day) | Tumor volume (Day 27) ([1]; 10 mg/kg orally once a day) | in vivo efficacy on the xenograft tumor model (in words) [1] | Tumor volume (Day 0) ([1]; 30 mg/kg orally once a day) | Relative tumor proliferation rate T/C (Day 27) ([1]; 30 mg/kg orally once a day) | TGI (Day 27) ([1]; 30 mg/kg orally once a day) | Tumor volume (Day 27) ([1]; 30 mg/kg orally once a day)
COCCOc1cc(NC(=O)NCc2ccc3c(C4CCC(=O)NC4=O)coc3c2)cc(Cl)c1C (centres unmarked) [WX005] | 89.45% | 6.1 nM | 108.29 mm^3 | 0% | 114.91% | 0 mm^3 | significant tumor shrinkage effect | – | – | – | –
COCCOc1cc(NC(=O)NCc2ccc3c(C4CCC(=O)NC4=O)noc3c2)cc(Cl)c1C (centres unmarked) [WX013] | 87.56% | 2.1 nM | – | – | – | – | significant tumor shrinkage effect | 108.69 mm^3 | 0% | 114.97% | 0 mm^3
